Assay results taken from US5430045A, “Method of reducing or preventing bone marrow hypoplasia” (Free Radical Sciences, Inc., priority 1993, dated 1995).
Where “and” joins values, the source holds several entries; their conditions need not be identical. Equal values may be shown once.

Assays:
[1] = test system: bone marrow; assay: Nucleated cells/femur and colony forming cells, Example 2; format: in vivo, mice
Method: Bone marrow colony-forming cells were evaluated. During necropsy, one femur per mouse was cut at the distal and proximal ends. Using a syringe and 25 G needle, 5 ml of Iscove's Modified Dulbecco's Media (IMDM) was flushed through the femur into a collection tube (2.5 ml flushed into one end, then 2.5 ml into the other end). The tube was washed using IMDM containing 20% fetal bovine serum and the cell concentration was adjusted to the desired count for the colony assay. In triplicate, the marrow cells were put into a mixture of methylcellulose, stem cell factor, interleukin-3, granulocyte macrophage--colony stimulating factor, and erythropoietin, and plated into 35 mm diameter dishes. The dishes were incubated 10 days (37° C., 5% CO2, 100% relative humidity) then manually scored under a light microscope for myeloid (white), erythroid (red), and mixed colonies.
(§1) Statistical analysis of bone marrow data included an analysis of the results from bone marrow smears (differential count and M:E ratio), analysis of the histopathologic characterization data for bone marrow cellularity, analysis of the bone marrow cellularity on the day of necropsy, analysis of the results of the hematopoietic colony forming assays (based on 10^4 mononuclear bone marrow (cells/dish), and analysis of the number of colony forming units represented per femur (cellularity data multiplied by colony forming data).

[2] = test system: peripheral blood; set-up: species or system mice; details: mouse, in vivo
Method: An eight week evaluation of the potential for oral Procysteine® to modulate AZT-induced hematologic toxicity in mice was conducted. As noted above, AZT-related bone marrow toxicity, and resultant bone marrow hypoplasia, limits the utility of this drug.
(§2) Animals were weighed (not fasted) on study day 59 and euthanized, and specimens were collected as described.
On study day 59, surviving mice were deeply anesthetized with methoxyflurane in a bell jar. While the mice were deeply anesthetized, blood for hematological analysis was obtained via cardiac puncture using needles/syringes coated with K3 EDTA. While deeply anesthetized, the mice were then euthanized by exsanguination followed by cervical dislocation. Then, bone marrow smears and aspirates were prepared and liver and kidneys were collected as subsequently described in this report.
The following hematology assays were conducted:
Statistical tests were performed at α≈0.01. Listings of the individual data were provided. Summary statistics by sex (mean, standard error and sample size) were provided for the responses for each group and for the differences between groups 1 and 2, between groups 3 and 5 and between groups 4 and 6. The average across weekly intervals for body weight change from study day 3 was analyzed. The average across weekly intervals for food consumption starting with the interval between days 3-4 were analyzed. The model included factors for block, sex and group effects and the group by sex interaction. the interactions with block effect were assumed negligible. Data for both sexes were included in one model to get an overall estimate of the residual standard deviation used in the statistical comparisons.
(§3) The difference between the means for groups 3 and 5 and the difference between the means for groups 4 and 6 were compared to the control delta. The significance of the two individual comparisons is designated in the summary statistics listing. Pairwise comparisons of the mean response for group 2 to group 1, group 3 to group 1, group 4 to group 1, group 5 to group 2, and group 6 to group 2 were also performed. The significance of these five comparisons was designated in the summary statistics listing. In total, the significance of seven statistical comparisons (two on the mean differences and five on the mean responses) are indicated in the summary statistics listing.

[3] = Histopathology of adrenal, skin and tail, Example 2; set-up: species or system mice; details: mouse, in vivo
[4] = test system: peripheral blood; set-up: species or system mice; details: mouse, in vivo; remark: listed apart in the source
Method: On study day 17, the animals were anesthetized with methoxyflurane (in a bell jar). When deeply anesthetized, blood was obtained by cardiac puncture and transferred for hematological analysis into tubes containing an EDTA suspension.
The following hematologic assays were conducted.
Statistical tests were performed at the α level of 0.01. Listing of the individual data and summary statistics (mean, standard error and sample size) was provided. The average body weight changes from study day 3 for study days 4-10 and 11-17 and average food consumption for study days 4-10 and 11-17 was analyzed.

[5] = test system: bone marrow; assay: Bone marrow smear differential, cells/femur and myeloid:erythroid ratio, Example 1; format: in vivo, mice
Method: Prepared slides were stained and evaluated microscopically.
Statistical tests were performed at the α level of 0.01. Listing of the individual data and summary statistics (mean, standard error and sample size) was provided. The average body weight changes from study day 3 for study days 4-10 and 11-17 and average food consumption for study days 4-10 and 11-17 was analyzed. […] Specifically, the interaction of AZT and procysteine® was evaluated.
Microscopic analysis of the bone marrow smears was conducted by evaluating 500 cells for the differential analysis and 500 cells for the myeloid: erythroid ratio.

[6] = test system: femoral bone marrow; assay: Histopathology of femoral bone marrow sections, Example 2; format: in vivo, mice
Method: as §2
(§4) One femur from each mouse was removed and transversely halved. One half was preserved in 10% neutral buffered formalin, then submitted to a histology department for further preparation. The other half of the femur was used to prepare bone marrow smears. […] Prepared slides for bone sections and bone marrow smears were stained (Diff-Quik®) and the smears and sections were evaluated microscopically.

[7] = GSH concentrations in blood, liver and kidney by HPLC, Example 2; format: in vivo, mice
[8] = test system: bone marrow colony forming cells; assay: Hematopoietic progenitor colony forming assay of bone marrow, Example 1; set-up: species or system mice; details: mouse, in vivo
Method: (§5) Populations of bone marrow colony forming cells were evaluated. Bone marrow was collected and the stem cell assay conducted, as follows: one femur per mouse was cut at the distal and proximal ends. Using a syringe and 25 gauge needle, 5 mL of IMDM media was flushed through the femur into a collection tube (2.5 mL flushed into one end, then 2.5 ml into the other end). The tube was washed using Iscove's Modified Dulbecco's Media containing 20% fetal bovine serum and the cell concentration was adjusted to the desired count for the colony assay.
In triplicate, the marrow cells were put into a mixture of methylcellulose and plated into 35 mm diameter dishes. The dishes were incubated approximately 2 weeks (37° C., 5% CO2, 100% relative humidity) then manually scored under a microscope for myeloid, erythroid, and mixed colonies.
(§6) Terminal blood was evaluated for hematological effects, and bone marrow smears and aspirates were counted and 10^4 nucleated cells of the aspirate were cultured 14 days to assess hematopoietic progenitor cells.

[9] = test system: bone marrow; assay: Nucleated cells per femur (bone marrow cells before plating), Example 1; format: in vivo, mice; details: for Nucleated Cells/Femur: M,F,combined in turn
Method: as §5, §6

[10] = test system: bone marrow; assay: Bone marrow smear differential and M:E ratio, Example 2; format: in vivo, mice
Method: as §4, §3, §1

[11] = AZT 50 mg/kg/day, M,F,combined in turn
[12] = AZT 500 mg/kg/day, M,F,combined in turn
[13] = 8 weeks, AZT 50/day, F, M in turn
[14] = 8 weeks, AZT 500/day, F, M in turn
[15] = 8 weeks, no AZT, F (N 9), M (N 10) in turn

## Cc1cn([C@H]2C[C@H](N=[N+]=[N-])[C@@H](CO)O2)c(=O)[nH]c1=O [AZT]
[1]; both high dose AZT groups
  total number of colonies: significant increases
[1]; males and females, high dose AZT ± Procysteine, vs controls
  Nucleated Cells/Femur: significantly decreased
[2]
  HCT: significant decrease
  MCV and MCH: Significant increases
  RBC and HGB: Significant decreases
  platelets: significant increases
[3]
  epidermal melanin-like pigment of tail: accumulation of epidermal melanin-like pigment
[4]
  mean corpuscular volume, mean corpuscular hemoglobin, incidence of polychromasia, anisocytosis, macrocytes and Howell-Jolly bodies: increases
  total hemoglobin concentration, hematocrit and erythrocyte counts: significant (p<0.01) decreases
[5]; [11]
  Bone Marrow-Miscellaneous Cells %: 0.4% and 0.5%
  Lymphocyte: 0.047 /Femur × 10**6 and 0.046 /Femur × 10**6
[5]; [12]
  Bone Marrow-Miscellaneous Cells %: 0.2%
  Lymphocyte: 0.022 /Femur × 10**6 and 0.015 /Femur × 10**6 and 0.019 /Femur × 10**6
[5]; bone marrow smears
  metarubricytes (nonproliferating): marked reduction
  rubriblasts: mild reduction
  total count of erythroid series cells: reduced total count
[5]; mouse, in vivo
  nonproliferating compartment of the myeloid series: reduction
  proliferating compartment of the myeloid series: significantly increased
[6]; [13]
  Bizarre Mitotic Figures (number of mice): 0
  Erythroid Hypoplasia (number of mice): 10 and 6
  General Hypoplasia (number of mice): 1
  Hemosiderin (number of mice): 0
[6]; [14]
  Erythroid Hypoplasia (number of mice): 9 and 8
  Hemosiderin (number of mice): 4 and 2
[6]; both doses, both sexes
  erythroid or general bone-marrow-hypoplasia: 36/39
[6]; female mice
  erythroid hypoplasia: 19/20
[6]; male mice
  erythroid hypoplasia: 14/19
[7]; mouse, in vivo
  Blood GSH: significantly decreased with increasing AZT dose
[8]
  total colonies and colony forming units-granulocyte/macrophage: significant induction
[9]; AZT 50 mg/kg/day
  Nucleated Cells/Femur: 11.7 ×10**6 and 9.9 ×10**6 and 10.8 ×10**6
[9]; AZT 500 mg/kg/day
  Nucleated Cells/Femur: 10.5 ×10**6 and 8.8 ×10**6 and 9.6 ×10**6
[9]; AZT and high-dose AZT/Procysteine, vs controls
  nucleated cells of bone marrow aspirates: significant reduction
[10]; male and female
  erythroid cells in bone marrow smears: significant reduction
  metarubricytes (nonproliferating) and rubriblasts: significantly reduced
  total proliferating myeloid and total myeloid cells: significantly increased

## O=C1N[C@H](C(=O)O)CS1 [Procysteine]
[2]
  HCT: 39.6%
  MCV: 51 fL
  Retic: 1.4%
  WBC: 2.1 10^3 /μl
[5]; no AZT, M,F,combined in turn
  Bone Marrow-Miscellaneous Cells %: 1.0% and 1.2% and 1.1%
  Lymphocyte: 0.130 /Femur × 10**6 and 0.141 /Femur × 10**6 and 0.135 /Femur × 10**6
  Myeloid:Erythroid Ratio: 1.59 and 1.58
[6]; [15]
  Bizarre Mitotic Figures (number of mice): 0
  Erythroid Hypoplasia (number of mice): 0
  General Hypoplasia (number of mice): 0
  Hemosiderin (number of mice): 0
  Normal bone marrow (number of mice): 9 and 10
[6]; eight weeks of cotreatment
  AZT-induced bone marrow pathology / hypoplasia: significantly ameliorated
[7]; at 0, 50, and 500 mg/kg/day AZT
  blood GSH concentrations vs AZT-only treated groups: higher
[9]; no AZT
  Nucleated Cells/Femur: 12.8 ×10**6 and 12.0 ×10**6 and 12.4 ×10**6
[10]; female mice
  erythroid series cells: only a mild decrease
  myeloid series cells: no meaningful alterations
[10]; male mice
  bone marrow status: normal bone marrows
